Test results from patent US10125134B2 (Mirati Therapeutics, Inc., priority 2016, dated 2018).
Like-named read-outs stand apart in the source and are kept apart here.

Tests used:
KRas G12C = KRas G12C (Homo sapiens, UniProt P01116, C118S/C51S/C80L/G12C); assay: KRas G12C Modification Assay (LCMS detection of covalent adduct); format: binding; settings: normalized percent of control; tested at 5 μM concentration for 3 hours
Method: A 10 μL aliquot of each protein solution was then transferred to a 384 well microtiter plate. Initial compound stocks were generated at fifty times their desired final assay concentration in DMSO.
Exemplary compounds of Formula (I) were diluted 25-fold into K-Ras Assay Buffer to a final of two times their final concentration. A 10 μL aliquot of each diluted compound solution was then added to each of the protein solutions in the microtiter plate to initiate reaction. […] At each time point, the reactions were quenched with 20 μL of a 25 mM acetic acid solution. […] Once all reactions were quenched, the plates were heat sealed and the samples were injected into a LC/MS system for data acquisition.
Samples were injected in their liquid phase onto a C-3 reverse phase column to remove assay buffer and prepare the samples for mass spectrometer. The proteins were eluted from the column using an acetonitrile gradient and fed directly into the mass analyzer. Initial raw data analysis took place in Agilent MassHunter software immediately post data acquisition.
Raw data analysis of the intact protein was exclusively a deconvolution of the multiple charge states of each protein in solution using a maximum entropy deconvolution provided in Mass Hunter. To minimize complexity, only the data over limited mass ranges were considered for analysis, with a minimum of one Dalton mass step intervals. The heights of all masses identified during raw data analysis were exported to be further analyzed in Spotfire® data analysis software.
Final data analysis was a multistep process in the Spotfire® data analysis software package. Briefly, each protein mass was calculated as a percent of the total signal of that sample, that percentage was then normalized to the percentage of signal of the protein in the absence of reactive compounds. Those normalized signals were reported as normalized percent of control (POC). […] Key: “A”≤25% POC; “B”>25% POC−≤50% POC; “C”>50% POC and ND=not determined.

[1] = system: NCI-H358 cells (express KRas G12C), Phospho-ERK; assay: Cellular inhibition of KRas G12C: Phospho-ERK in NCI-H358 cells; format: cell-based; settings: pERK(Thr202/Tyr204) normalized with GAPDH, NCI-H358 cells, 3 hours, read-out: IC50
Procedure, shortened: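 IC50 derived by 4-parameter fit of GAPDH-normalized pERK(Thr202/Tyr204) signal, as percent of DMSO control. Signal came from in-cell immunodetection with infrared secondaries after 3 h compound exposure of KRas G12C NCI-H358 cells at 0.5% DMSO.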

| SMILES | POC (KRas G12C) | IC50 ([1]; Homo sapiens, NCI-H358, 3 h) [nM] | IC50 ([1]; Homo sapiens) [nM] | IC50 [1] [nM] |
| --- | --- | --- | --- | --- |
| C=CC(=O)N1CCN(c2nc(OCCN3CCC(F)(F)C3)nc3c2CCN(c2cc(O)cc4ccccc24)C3)CC1 [Example 139, 1-[4-[2-[2-(3,3-difluoropyrrolidin-1-yl)ethoxy]-7-(3-hydroxy-1-naphthyl)-6,8-dihydro-5H-pyrido[3,4-d]pyrimidin-4-yl]piperazin-1-yl]prop-2-en-1-one] | C (“C”>50% POC) | > 1000 | – | – |
| C=CC(=O)N1CCN(c2nc(OCCCN3CCOCC3)nc3c2CCN(c2cc(O)cc4cc(C)ccc24)C3)CC1 [Example 43, 1-(4-(7-(3-hydroxy-6-methylnaphthalen-1-yl)-2-(3-morpholinopropoxy)-5,6,7,8-tetrahydropyrido[3,4-d]pyrimidin-4-yl)piperazin-1-yl)prop-2-en-1-one] | C (“C”>50% POC) | – | > 1000 | – |
| C=CC(=O)N1CCN(c2nc(OC[C@@H]3CCNC3)nc3c2CCN(c2cc(O)cc4ccccc24)C3)CC1 [Example 146, 1-[4-[7-(3-hydroxy-1-naphthyl)-2-[[(3R)-pyrrolidin-3-yl]methoxy]-6,8-dihydro-5H-pyrido[3,4-d]pyrimidin-4-yl]piperazin-1-yl]prop-2-en-1-one] | B (“B”>25% POC−≤50% POC) | > 1000 | – | – |
| C=CC(=O)N1CCN(c2nc(OC[C@@H]3CCCN3C)nc3c2CCN(c2c(O)cccc2F)C3)[C@@H](C)C1 [Example 321, 1-[(3S)-4-[7-(2-fluoro-6-hydroxy-phenyl)-2-[[(2S)-1-methylpyrrolidin-2-yl]methoxy]-6,8-dihydro-5H-pyrido[3,4-d]pyrimidin-4-yl]-3-methyl-piperazin-1-yl]prop-2-en-1-one] | B (“B”>25% POC−≤50% POC) | > 1000 | – | – |
| C=CC(=O)N1CCN(c2nc(OC(C)CN(C)C)nc3c2CCN(c2cccc4ccccc24)C3)CC1 (stereo not shown) [Example 24, 1-(4-(2-((1-(dimethylamino)propan-2-yl)oxy)-7-(naphthalen-1-yl)-5,6,7,8-tetrahydropyrido[3,4-d]pyrimidin-4-yl)piperazin-1-yl)prop-2-en-1-one] | A (“A”≤25% POC) | > 1000 | – | – |
| C=CC(=O)N1CCN(c2nc(OC[C@@H]3CCCN3C)nc3c2CCN(c2c(F)c(O)cc4ccccc24)C3)CC1 [Example 249, 1-[4-[7-(2-fluoro-3-hydroxy-1-naphthyl)-2-[[(2S)-1-methylpyrrolidin-2-yl]methoxy]-6,8-dihydro-5H-pyrido[3,4-d]pyrimidin-4-yl]piperazin-1-yl]prop-2-en-1-one] | C (“C”>50% POC) | – | 0.1 to 1000 | – |
| C=CC(=O)N1CCN(c2nc(N3CCC(N(C)C)C3)nc3c2CCN(c2cc(O)cc4ccccc24)C3)CC1 (stereo not shown) [Example 13, 1-(4-(2-(3-(dimethylamino)pyrrolidin-1-yl)-7-(3-hydroxynaphthalen-1-yl)-5,6,7,8-tetrahydropyrido[3,4-d]pyrimidin-4-yl)piperazin-1-yl)prop-2-en-1-one] | C (“C”>50% POC) | > 1000 | – | – |
| C=CC(=O)N1CCN(c2ncnc3c2CCN(c2c(O)cccc2F)C3)CC1 [Example 4, 1-(4-(7-(2-fluoro-6-hydroxyphenyl)-5,6,7,8-tetrahydropyrido[3,4-d]pyrimidin-4-yl)piperazin-1-yl)prop-2-en-1-one] | A (“A”≤25% POC) | > 1000 | – | – |
| C=CC(=O)N1CCN(c2nc(OCCCN3CCOCC3)nc3c2CCN(c2c(C(F)(F)F)ccc4[nH]ncc24)C3)CC1 [Example 180, 1-[4-[2-(3-morpholinopropoxy)-7-[5-(trifluoromethyl)-1H-indazol-4-yl]-6,8-dihydro-5H-pyrido[3,4-d]pyrimidin-4-yl]piperazin-1-yl]prop-2-en-1-one] | C (“C”>50% POC) | – | 0.1 to 1000 | – |

Continued, in another order:

| POC (KRas G12C) | SMILES | IC50 ([1]; Homo sapiens, NCI-H358, 3 h) [nM] | IC50 ([1]; Homo sapiens) [nM] | IC50 [1] [nM] |
| --- | --- | --- | --- | --- |
| C (“C”>50% POC) | C=CC(=O)N1CCN(c2nc(OC[C@@H]3C[C@H](OC)CN3C)nc3c2CCN(c2cccc4ccccc24)C3)CC1CC#N (stereo partly drawn) [Example 222, 2-(1-acryloyl-4-(2-(((2S,4S)-4-methoxy-1-methylpyrrolidin-2-yl)methoxy)-7-(naphthalen-1-yl)-5,6,7,8-tetrahydropyrido[3,4-d]pyrimidin-4-yl)piperazin-2-yl)acetonitrile] | 0.1 to 1000 | – | – |
| C (“C”>50% POC) | C=CC(=O)N1CCN(c2nc(OCCCN3CCOCC3)nc3c2CCN(c2cccc4cccc(C)c24)C3)C[C@@H]1CC#N [Example 370, (S)-2-(1-acryloyl-4-(7-(8-methylnaphthalen-1-yl)-2-(3-morpholinopropoxy)-5,6,7,8-tetrahydropyrido[3,4-d]pyrimidin-4-yl)piperazin-2-yl)acetonitrile] | 0.1 to 1000 | – | – |
| C (“C”>50% POC) | C=CC(=O)N1CCN(c2nc(OC[C@@H]3CCCN3CC(=O)N(C)C)nc3c2CCN(c2cccc4ccccc24)C3)C[C@@H]1CC#N [Example 401, 2-((S)-2-(((4-((S)-4-acryloyl-3-(cyanomethyl)piperazin-1-yl)-7-(naphthalen-1-yl)-5,6,7,8-tetrahydropyrido[3,4-d]pyrimidin-2-yl)oxy)methyl)pyrrolidin-1-yl)-N,N-dimethylacetamide] | 0.1 to 1000 | – | – |
| A (“A”≤25% POC) | C=CC(=O)N1CCN(c2nc(OC[C@@H]3CCCN3C)nc3c2CCN(c2ccccc2F)C3)CC1CC#N (stereo partly drawn) [Example 227, 2-(1-acryloyl-4-(7-(2-fluorophenyl)-2-(((S)-1-methylpyrrolidin-2-yl)methoxy)-5,6,7,8-tetrahydropyrido[3,4-d]pyrimidin-4-yl)piperazin-2-yl)acetonitrile] | 0.1 to 1000 | – | – |
| C (“C”>50% POC) | C=CC(=O)N1CCN(c2nc(OC[C@@H]3CCCN3C)nc3c2CCN(c2c(F)ccc4ccccc24)C3)CC1CC#N (stereo partly drawn) [Example 311, 2-(1-acryloyl-4-(7-(2-fluoronaphthalen-1-yl)-2-(((S)-1-methylpyrrolidin-2-yl)methoxy)-5,6,7,8-tetrahydropyrido[3,4-d]pyrimidin-4-yl)piperazin-2-yl)acetonitrile] | 0.1 to 1000 | – | – |
| C (“C”>50% POC) | C=CC(=O)N1CCN(c2nc(OC[C@@H]3CCCN3C)nc3c2CCN(c2cccc4c(F)cccc24)C3)CC1CC#N (stereo partly drawn) [Example 254, 2-[4-[7-(5-fluoro-1-naphthyl)-2-[[(2S)-1-methylpyrrolidin-2-yl]methoxy]-6,8-dihydro-5H-pyrido[3,4-d]pyrimidin-4-yl]-1-prop-2-enoyl-piperazin-2-yl]acetonitrile] | 0.1 to 1000 | – | – |
| C (“C”>50% POC) | C=CC(=O)N1CCN(c2nc(OC[C@@H]3CCCN3C)nc3c2CCN(c2cccc4ccc(Cl)cc24)C3)CC1CC#N (stereo partly drawn) [Example 286, 2-(1-acryloyl-4-(7-(7-chloronaphthalen-1-yl)-2-(((S)-1-methylpyrrolidin-2-yl)methoxy)-5,6,7,8-tetrahydropyrido[3,4-d]pyrimidin-4-yl)piperazin-2-yl)acetonitrile] | – | – | 0.1 to 1000 |
| C (“C”>50% POC) | C=CC(=O)N1C[C@H](C)N(c2nc(OC[C@@H]3CCCN3C)nc3c2CCN(c2cccc4ccccc24)C3)C[C@@H]1CC#N [Example 368, 2-((2S,5S)-1-acryloyl-5-methyl-4-(2-(((S)-1-methylpyrrolidin-2-yl)methoxy)-7-(naphthalen-1-yl)-5,6,7,8-tetrahydropyrido[3,4-d]pyrimidin-4-yl)piperazin-2-yl)acetonitrile] | > 1000 | – | – |
| C (“C”>50% POC) | C=CC(=O)N1CCN(c2nc(OC[C@@H]3CCN(C)C3)nc3c2CCN(c2ccccc2C(F)(F)F)C3)CC1CC#N (stereo partly drawn) [Example 281, 2-(1-acryloyl-4-(2-(((R)-1-methylpyrrolidin-3-yl)methoxy)-7-(2-(trifluoromethyl)phenyl)-5,6,7,8-tetrahydropyrido[3,4-d]pyrimidin-4-yl)piperazin-2-yl)acetonitrile] | 0.1 to 1000 | – | – |
| C (“C”>50% POC) | C=CC(=O)N1CCN(c2nc(OCCN3CCCC(F)(F)C3)nc3c2CCN(c2cccc4cccc(Cl)c24)C3)C[C@@H]1CC#N [Example 453, 2-[(2S)-4-[7-(8-chloro-1-naphthyl)-2-[2-(3,3-difluoro-1-piperidyl)ethoxy]-6,8-dihydro-5H-pyrido[3,4-d]pyrimidin-4-yl]-1-prop-2-enoyl-piperazin-2-yl]acetonitrile] | 0.1 to 1000 | – | – |
| C (“C”>50% POC) | C=CC(=O)N1CCN(c2nc(OC[C@H]3C[C@H](F)CN3C)nc3c2CCN(c2cccc(F)c2C(F)(F)F)C3)CC1CC#N (stereo partly drawn) [Example 416, 2-(1-acryloyl-4-(2-(((2R,4S)-4-fluoro-1-methylpyrrolidin-2-yl)methoxy)-7-(3-fluoro-2-(trifluoromethyl)phenyl)-5,6,7,8-tetrahydropyrido[3,4-d]pyrimidin-4-yl)piperazin-2-yl)acetonitrile] | 0.1 to 1000 | – | – |
